Data taken from PubChem BioAssay AID254 (DTP/NCI, 2004).
Several values for one entry are separate records, joined by “and”; a condition that tells them apart may be missing. Equal values may be shown once. Toxic doses and inconclusive results are not listed.

System: L1210 leukemia iv in BDF1 mice, survival T/C
Assay: NCI In Vivo Anticancer Drug Screen. Data for tumor model L1210 Leukemia (intravenous) in B6D2F1 (BDF1) mice
Conditions: endpoint: mean survival time, higher = longer survival
Procedure: The antitumor activity of compounds was measured in mice bearing transplantable tumors. Survival or tumor size were measured and the results are expressed as the measurement made in the treated group (T) divided by the measurement made in the vehicle treated control group (C). The tumor model used in this assay is L1210 Leukemia (intravenous) in B6D2F1 (BDF1) mice

SMILES: CC1CCC(NC(=O)N(CCCl)N=O)CC1 (configuration not stated)
- T/C (dose: 5.0 mg/kg/injection, schedule: Q04DX004 (ip), vehicle: other): 124 % of control
- T/C (dose: 5.4 mg/kg/injection, schedule: Q01DX001 (oral), vehicle: other): 122 % of control
- T/C (dose: 8.6 mg/kg/injection, schedule: Q04DX004 (ip), vehicle: saline with Tween-80): 187 % of control
- T/C (dose: 10.0 mg/kg/injection, schedule: Q04DX004 (ip), vehicle: other): 182 % of control
- T/C (dose: 10.7 mg/kg/injection, schedule: Q01DX001 (ip), vehicle: saline with Tween-80): 152 % of control and 163 % of control
- T/C (dose: 12.0 mg/kg/injection, schedule: Q01DX001 (ip), vehicle: other): 165 % of control
- T/C (dose: 12.0 mg/kg/injection, schedule: Q01DX001 (oral), vehicle: other): 164 % of control and 187 % of control
- T/C (dose: 13.0 mg/kg/injection, schedule: Q04DX004 (ip), vehicle: saline with Tween-80): 849 % of control and 850 % of control
- T/C (dose: 15.0 mg/kg/injection, schedule: Q01DX001 (ip), vehicle: other): 352 % of control and 185 % of control and 332 % of control
- T/C (dose: 15.0 mg/kg/injection, schedule: Q04DX004 (ip), vehicle: other): 734 % of control
- T/C (dose: 16.0 mg/kg/injection, schedule: Q01DX001 (ip), vehicle: other): 102 % of control
- T/C (dose: 16.0 mg/kg/injection, schedule: Q01DX001 (ip), vehicle: saline with Tween-80): 189 % of control and 248 % of control
- T/C (dose: 20.0 mg/kg/injection, schedule: Q01DX001 (ip), vehicle: other): 532 % of control and 303 % of control and 326 % of control
- T/C (dose: 20.0 mg/kg/injection, schedule: Q04DX004 (ip), vehicle: other): 463 % of control
- T/C (dose: 20.0 mg/kg/injection, schedule: Q04DX004 (ip), vehicle: saline with Tween-80): 983 % of control
- T/C (dose: 24.0 mg/kg/injection, schedule: Q01DX001 (ip), vehicle: other): 153 % of control
- T/C (dose: 24.0 mg/kg/injection, schedule: Q01DX001 (ip), vehicle: saline with Tween-80): 347 % of control and 453 % of control
- T/C (dose: 27.0 mg/kg/injection, schedule: Q01DX001 (oral), vehicle: other): 590 % of control and 633 % of control and 818 % of control
- T/C (dose: 30.0 mg/kg/injection, schedule: Q01DX001 (ip), vehicle: other): 683 % of control
- T/C (dose: 30.0 mg/kg/injection, schedule: Q04DX004 (ip), vehicle: other): 819 % of control
- T/C (dose: 35.0 mg/kg/injection, schedule: Q01DX001 (ip), vehicle: other): 761 % of control
- T/C (dose: 36.0 mg/kg/injection, schedule: Q01DX001 (ip), vehicle: other): 153 % of control
- T/C (dose: 36.0 mg/kg/injection, schedule: Q01DX001 (ip), vehicle: saline with Tween-80): 612 % of control
- T/C (dose: 36.0 mg/kg/injection, schedule: Q01DX001 (oral), vehicle: other): 751 % of control and 753 % of control and 868 % of control
- T/C (dose: 40.0 mg/kg/injection, schedule: Q01DX001 (oral), vehicle: other): 633 % of control and 786 % of control and 818 % of control
- T/C (dose: 45.0 mg/kg/injection, schedule: Q01DX001 (oral), vehicle: other): 574 % of control and 600 % of control
- T/C (dose: 50.0 mg/kg/injection, schedule: Q01DX001 (ip), vehicle: other): 542 % of control and 661 % of control
- T/C (dose: 54.0 mg/kg/injection, schedule: Q01DX001 (ip), vehicle: other): 202 % of control
- T/C (dose: 54.0 mg/kg/injection, schedule: Q01DX001 (ip), vehicle: saline with Tween-80): 683 % of control and 875 % of control
- T/C (dose: 54.0 mg/kg/injection, schedule: Q01DX001 (oral), vehicle: other): 810 % of control and 983 % of control and 179 % of control
- T/C (dose: 55.0 mg/kg/injection, schedule: Q01DX001 (ip), vehicle: other): 500 % of control and 295 % of control
- T/C (dose: 60.0 mg/kg/injection, schedule: Q01DX001 (ip), vehicle: saline with Tween-80): 557 % of control
- T/C (dose: 60.0 mg/kg/injection, schedule: Q01DX001 (oral), vehicle: other): 408 % of control and 434 % of control and 185 % of control
- T/C (dose: 70.0 mg/kg/injection, schedule: Q01DX001 (ip), vehicle: other): 433 % of control and 226 % of control
- T/C (dose: 71.0 mg/kg/injection, schedule: Q01DX001 (ip), vehicle: saline with Tween-80): 156 % of control and 167 % of control
- T/C (dose: 80.0 mg/kg/injection, schedule: Q01DX001 (ip), vehicle: other): 580 % of control and 171 % of control
- T/C (dose: 81.0 mg/kg/injection, schedule: Q01DX001 (ip), vehicle: other): 378 % of control [middle of 4 runs]
- T/C (dose: 81.0 mg/kg/injection, schedule: Q01DX001 (ip), vehicle: saline with Tween-80): 520 % of control and 719 % of control
- T/C (dose: 90.0 mg/kg/injection, schedule: Q01DX001 (ip), vehicle: other): 511 % of control
- T/C (dose: 90.0 mg/kg/injection, schedule: Q01DX001 (oral), vehicle: other): 372 % of control and 320 % of control
- T/C (dose: 91.0 mg/kg/injection, schedule: Q01DX001 (oral), vehicle: other): 336 % of control and 513 % of control and 303 % of control
- T/C (dose: 100.0 mg/kg/injection, schedule: Q01DX001 (ip), vehicle: other): 350 % of control
- T/C (dose: 107.0 mg/kg/injection, schedule: Q01DX001 (ip), vehicle: saline with Tween-80): 201 % of control and 229 % of control
- T/C (dose: 110.0 mg/kg/injection, schedule: Q01DX001 (ip), vehicle: other): 188 % of control
- T/C (dose: 120.0 mg/kg/injection, schedule: Q01DX001 (ip), vehicle: other): 245 % of control
- T/C (dose: 160.0 mg/kg/injection, schedule: Q01DX001 (ip), vehicle: saline with Tween-80): 392 % of control and 248 % of control
- T/C (dose: 240.0 mg/kg/injection, schedule: Q01DX001 (ip), vehicle: saline with Tween-80): 556 % of control
- T/C (dose: 360.0 mg/kg/injection, schedule: Q01DX001 (ip), vehicle: saline with Tween-80): 194 % of control and 263 % of control
- T/C (dose: 540.0 mg/kg/injection, schedule: Q01DX001 (ip), vehicle: saline with Tween-80): 173 % of control

SMILES: O=NN(CCCl)C(=O)NC1CCCC1
- T/C (dose: 9.0 mg/kg/injection, schedule: Q01DX001 (ip), vehicle: saline): 106 % of control and 100 % of control
- T/C (dose: 19.0 mg/kg/injection, schedule: Q01DX001 (ip), vehicle: saline): 114 % of control and 119 % of control
- T/C (dose: 38.0 mg/kg/injection, schedule: Q01DX001 (ip), vehicle: saline): 160 % of control and 182 % of control
- T/C (dose: 75.0 mg/kg/injection, schedule: Q01DX001 (ip), vehicle: saline): 174 % of control and 202 % of control
- T/C (dose: 150.0 mg/kg/injection, schedule: Q01DX001 (ip), vehicle: saline): 212 % of control and 265 % of control

SMILES: NC(=S)N/N=C/c1ccccn1
- T/C (dose: 5.0 mg/kg/injection, schedule: Q01HX008 (ip), vehicle: other): 105 % of control
- T/C (dose: 5.0 mg/kg/injection, schedule: Q03HX008 (ip), vehicle: other): 166 % of control
- T/C (dose: 8.0 mg/kg/injection, schedule: Q01DX008 (ip), vehicle: other): 176 % of control
- T/C (dose: 8.0 mg/kg/injection, schedule: Q03HX008 (ip), vehicle: other): 208 % of control
- T/C (dose: 8.0 mg/kg/injection, schedule: Q06HX008 (ip), vehicle: other): 176 % of control
- T/C (dose: 8.0 mg/kg/injection, schedule: Q12HX008 (ip), vehicle: other): 200 % of control
- T/C (dose: 22.0 mg/kg/injection, schedule: Q01DX001 (ip), vehicle: other): 111 % of control
- T/C (dose: 33.0 mg/kg/injection, schedule: Q01DX001 (ip), vehicle: other): 110 % of control
